Holding throughout (test): NCI tumour cell line growth inhibition, 48 h
Test [1] concerns MDA-MB-435.
The subject of test [2] is SW-620 colon.
In test [3] the test system is HCT-116 colon.
The subject of test [4] is MOLT-4 leukemia.
In test [5] the test system is SN12C renal.
Test [6] relates to DU-145 prostate.
Test [7] deals with UACC-62 melanoma.
The subject of test [8] is KM12 colon.
Test [9] deals with OVCAR-3 ovarian.
In test [10] the test system is PC-3 prostate.

In PubChem BioAssay (NCI) one finds GI50 and TGI data, which are given here for nine compounds.

Each structure is given as a SMILES string. “And” between values parts separate entries of the source, which are not always exact repeats. Equal entries are not always repeated.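 Cultured in 96-well plates, cells were exposed to test compound for 48 hours across five concentrations. The concentration for 50% growth inhibition is given as GI50. TGI: total growth inhibition.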

Regarding `CNc1ccc2nc3ccc(=[N+](C)C)cc-3sc2c1`, the GI50 in test [1] was 0.547 µM and 0.785 µM; in test [2], 1.63 µM and 0.424 µM; in test [3], 0.304 µM and 0.246 µM; in test [4], 0.637 µM and 0.667 µM; in test [5], 1.08 µM and 0.466 µM; in test [6], 3.6 µM and 2.76 µM. Moreover, the GI50 in test [7] was 0.799 µM and 1.1 µM; in test [8], 1.15 µM and 0.651 µM; in test [9], 0.408 µM and 0.205 µM; in [10] it was 0.41 µM and 0.203 µM. Moreover, the TGI was 2.33 µM and 2.85 µM in [1]; 12.5 µM and 10.5 µM in [2]; 8.7 µM and 1.47 µM in test [3]; 12.1 µM and 9.36 µM in test [4]; 3.31 µM and 4.16 µM in [5]; 16.1 µM and 11.9 µM in test [6]. Also, the TGI in test [7] was 2.86 µM and 3.6 µM; in [8], 17.6 µM and 11.6 µM; in [10], 11.6 µM and 2.87 µM.

Consider `CC(=O)Nc1ccc2c(c1)c(C1=C(c3cn(C)c4ccccc34)C(=O)NC1=O)cn2C`, for which the GI50 was 0.198 µM in [1]; 1.02 µM in [2]; 1.09 µM in [3]; 2.4 µM in test [4]; 1.66 µM in [5]; 4.02 µM in [6]. The GI50 in test [7] is 1.15 µM; in test [8], 1.16 µM; in test [9], 0.723 µM; in test [10], 0.754 µM. Further, the TGI in test [1] is above 25 µM; in test [2], above 25 µM; in [3], above 25 µM; in test [4], 13.8 µM; in test [5], above 25 µM; in test [6] it was above 25 µM. Also, the TGI in test [7] was above 25 µM; in [8], above 25 µM; in [9], 2.16 µM; in test [10] it was 22.1 µM.

`COc1ccc(C(=O)/C(Br)=C/C(=O)O)cc1`: the GI50 in test [1] is 8.18 µM; in test [2], 19.2 µM and 24.7 µM; in test [3], 25.9 µM and 25.4 µM; in test [4], 21 µM; in test [5], 53.7 µM; in [6], 65.3 µM. In addition, the GI50 in [7] was 12.3 µM; in test [9], 35.6 µM and 22.7 µM; in test [10] it was 74.5 µM. The TGI in test [1] was 111 µM and 33.5 µM; in test [2], 63.6 µM and 145 µM; in test [3] it was 81.3 µM and 65.8 µM; in test [4], 98.5 µM and 86.5 µM; in [5], 228 µM and 183 µM; in [6] it was 128 µM and 202 µM. The TGI in [7] was 45.3 µM and 32.3 µM; in test [8], 48.8 µM and 48 µM; in [9], 133 µM and 116 µM; in test [10], 159 µM and 257 µM.

With `CS(=O)(=O)CCNCc1nc(-c2ccc3ncnc(Nc4ccc(F)c(Cl)c4)c3c2)cs1`, the GI50 was 18 µM in [1]; above 25 µM in [2]; above 23.9 µM in test [3]; 15.3 µM in test [4]; 15.6 µM in test [5]; 5.49 µM in test [6]. The GI50 was 17.6 µM in test [7], 21.1 µM in test [8], 11.1 µM in test [9] and 14.7 µM in test [10]. Also, the TGI in test [1], in [2], in test [3], in test [4], in test [5] and in test [6] was above 25 µM throughout. The TGI in test [7], in [8], in test [9] and in test [10] was above 25 µM in each case.

Regarding `Cc1ncc(CN=Cc2ccc(Cl)cc2)c(N)n1`, the TGI in [1], in [2], in test [3], in [4], in test [5] and in test [6] was above 100 µM throughout. The TGI in test [7], in test [8], in test [9] and in [10] was above 100 µM throughout.

As for `O=P(O)(CCP(=O)(O)c1ccccc1)c1ccccc1`, the TGI in test [1], in test [2], in test [3], in test [4], in test [5] and in test [6] was above 100 µM in each case. Also, the TGI in test [7], in test [8], in test [9] and in test [10] was above 100 µM in each case.

For `N#Cc1c(-c2nc3ccccc3s2)c(=O)oc2cc(O)ccc12`, the TGI in test [1], in [2], in test [3], in test [4], in [5] and in test [6] was above 100 µM in each case. Also, the TGI in test [7] is above 100 µM; in test [8], 73 µM; in test [9] it was above 100 µM; in test [10], above 100 µM.

With `C=C1C(=O)O[C@H]2[C@H]1CC/C(COC(=O)c1cc3cc(F)ccc3[nH]1)=C\CC[C@@]1(C)O[C@@H]21`, the GI50 in test [1] is 1.5 µM; in test [2], 1.43 µM; in test [3], 1.5 µM; in [4], 2.26 µM; in test [5], 1.85 µM; in test [6] it was 1.67 µM. The GI50 in test [7] is 1.89 µM; in test [8] it was 1.98 µM; in test [9], 1.2 µM; in test [10], 1.7 µM. In addition, the TGI in [1] worked out at 2.96 µM; in test [2], 4.09 µM; in test [3] it was 2.96 µM; in test [4], 9.23 µM; in test [5], 3.92 µM; in test [6] it was 3.19 µM. Also, the TGI was 3.79 µM in [7], 5.06 µM in [8], 2.66 µM in [9] and 3.44 µM in [10].

`Cc1c2c(nn1-c1ccc(S(=O)(=O)NC(=S)Nc3ccccc3)cc1)-c1ccccc1CC2`: the GI50 was 14.4 µM in test [1]; above 50 µM in test [2]; 18.2 µM in [3]; above 50 µM in test [4]; above 50 µM in [5]; above 50 µM in test [6]. Also, the GI50 in test [7] was above 50 µM; in test [8] it was 25.6 µM; in [9], 36.8 µM; in test [10], 39.9 µM. Also, the TGI in test [1], in test [2], in test [3], in [4], in test [5] and in test [6] was above 50 µM each time. Moreover, the TGI in test [7], in [8], in [9] and in [10] was above 50 µM throughout.
